Experiments:
Dirofilaria immitis = experiment: Effect test on Dirofilaria immitis (larval motility inhibition); settings: 168 h, read-out: motility inhibition rate
Plutella xylostella = experiment: Insecticidal test against Plutella xylostella; settings: in Brassica rapa, 144 h, read-out: corrected mortality (%), assessment
Text: Six days after the immersion in the drug solution, the number of surviving insects was examined.

SMILES | inhibition at 100 µM (Dirofilaria immitis) | mortality at 500 µg/mL (Plutella xylostella)
O=C1CC(c2ccc(Br)cn2)CC(=O)C1=C(Nc1ccc(F)nc1)Nc1ccc(F)nc1 (centres unmarked) [1-6] | ≥ 50% | –
CNC(Nc1ccc(F)cc1)=C1C(=O)CN(c2ccccc2)N(c2ccccc2)C1=O [6-35] | ≥ 50% | –
CNC(Nc1ccc(F)cc1)=C1C(=O)CC(c2ccc(C(F)(F)F)cc2)CC1=O (centres unmarked) [1-57] | ≥ 50% | –
CSC(Nc1ccc(F)nc1)=C1C(=O)CC(c2ccc(Br)s2)NC1=O (centres unmarked) [9-33] | ≥ 50% | –
CNC(Nc1ccc(F)cc1)=C1C(=O)CN(c2cnc(C#N)c(Cl)c2)N(C)C1=O [6-44] | ≥ 50% | –
O=C1CC(c2ccc(C(F)(F)F)cc2)CC(=O)C1=C(Nc1ccc(F)nc1)Nc1ccc(F)nc1 (centres unmarked) [1-3] | ≥ 50% | –
CNC(Nc1ccc(F)cc1)=C1C(=O)CC(c2c(-c3ccccc3)nn(C)c2Cl)CC1=O (centres unmarked) [1-82] | ≥ 50% | –
CNC(NC)=C1C(=O)CC(c2ccco2)CC1=O (centres unmarked) [1-11] | ≥ 50% | –
CNC(Nc1ccc(F)cc1)=C1C(=O)CN(c2cnc(C#N)c(OC)c2)N(C(=O)OC)C1=O [6-21] | ≥ 50% | –
O=C1CC(c2ccc(C(F)(F)F)cc2)CC(=O)C1=C(NCCBr)Nc1ccc(F)cc1 (centres unmarked) [1-27] | ≥ 50% | –
COCCNC(Nc1ccc(F)cc1)=C1C(=O)CC(c2ccc(C(F)(F)F)cc2)CC1=O (centres unmarked) [1-25] | ≥ 50% | –
O=C1CC(c2ccc(C(F)(F)F)nc2)OC(=O)C1=C(Nc1ccc(F)cn1)Nc1ccc(F)cn1 (centres unmarked) [2-2] | ≥ 50% | –
O=C1CC(c2ccc(C(F)(F)F)cc2)CC(=O)C1=C(Nc1ccnc(F)c1)Nc1ccnc(F)c1 (centres unmarked) [1-4] | ≥ 50% | –
O=C1CC(c2ccc(Cl)s2)CC(=O)C1=C(Nc1ccc(F)nc1)Nc1ccc(F)nc1 (centres unmarked) [1-49] | ≥ 50% | –
O=C1CC(c2ccc(Cl)s2)CC(=O)C1=C(Nc1ccc(F)cn1)Nc1ccc(F)cn1 (centres unmarked) [1-2] | ≥ 50% | –
O=C1CC(c2ccc(C(F)(F)F)nc2)OC(=O)C1=C(Nc1ccnc(F)c1)Nc1ccnc(F)c1 (centres unmarked) [2-1] | ≥ 50% | –
CC1(C)C(=O)C(=C(Nc2ccc(F)nc2)Nc2ccc(F)nc2)C(=O)CC1c1ccc(Br)cn1 (centres unmarked) [1-46] | ≥ 50% | –
O=C1CC(c2ccc(C(F)(F)F)cc2)CC(=O)C1=C(NCC(F)(F)F)Nc1ccc(F)cc1 (centres unmarked) [1-23] | ≥ 50% | 100%
Cn1nc(-c2ccccc2)c(C2CC(=O)C(=C(Nc3ccc(F)cc3)Nc3ccc(F)cc3)C(=O)C2)c1Cl (centres unmarked) [1-80] | ≥ 50% | –
O=C1CC(c2ccc(C(F)(F)F)cc2)CC(=O)C1=C(Nc1ccc(F)cc1)Nc1ccc(F)cc1 (centres unmarked) [compound No. 1-9, 2-(bis((4-fluorophenyl)amino)methylene)-5-(4-(trifluoromethyl)phenyl)cyclohexane-1,3-dione] | ≥ 50% | –
O=C1CC(c2nc(-c3ccc(F)cc3)cs2)NC(=O)C1=C(Nc1ccc(F)cc1)Nc1ccc(F)nc1 (centres unmarked) [3-24] | ≥ 50% | 100%
CCCNC(Nc1ccc(F)cc1)=C1C(=O)CN(c2ccc(C#N)cn2)CC1=O [4-3] | ≥ 50% | 100%
O=C1CC(c2ccc(C(F)(F)F)cc2)CC(=O)C1=C(Nc1ccc(F)cc1)NC1CC1 (centres unmarked) [1-36] | ≥ 50% | –
O=C1CC(c2ccc(C(F)(F)F)cc2)CC(=O)C1=C(NCc1ccccn1)Nc1ccc(F)cc1 (centres unmarked) [1-19] | ≥ 50% | –

SMILES | inhibition at 100 µM (Dirofilaria immitis) | mortality at 500 µg/mL (Plutella xylostella)
CCC1(c2ccc(C(F)(F)F)cc2)CN(C)C(=O)C(=C(NC)Nc2ccc(F)nc2)C1=O (centres unmarked) [3-8] | ≥ 50% | –
COCCNC(NCCOC)=C1C(=O)CC(c2ccc(C(F)(F)F)cc2)CC1=O (centres unmarked) [1-29] | ≥ 50% | –
CSC(Nc1ccc(F)nc1)=C1C(=O)CC(c2ccc(C(F)(F)F)cc2)CC1=O (centres unmarked) [compound No. 9-1] | ≥ 50% | 100%
CC(C)(C)OC(=O)C1CC(=O)C(=C(Nc2ccc(F)cc2)Nc2ccc(F)nc2)C(=O)N1 (centres unmarked) [3-39] | ≥ 50% | 100%
CNC(Nc1ccc(F)nc1)=C1C(=O)CC(c2ccc(C(F)(F)F)cc2)C(c2ccccn2)C1=O (centres unmarked) [1-70] | ≥ 50% | –
O=C1CC(c2ccc(C(F)(F)F)nc2)CC(=O)C1=C(Nc1ccc(F)nc1)Nc1ccc(F)nc1 (centres unmarked) [1-8] | ≥ 50% | –
Cc1cc(NC(Nc2ccc(F)cc2)=C2C(=O)CC(c3ccc(C(F)(F)F)cc3)CC2=O)no1 (centres unmarked) [1-15] | ≥ 50% | –
O=C1CC(c2ccc(C(F)(F)F)cc2)C(c2ccncc2)C(=O)C1=C(Nc1ccc(F)nc1)Nc1ccc(F)nc1 (centres unmarked) [1-72] | ≥ 50% | –
CNC(Nc1ccc(F)cc1)=C1C(=O)CN(c2ccc(C#N)nc2)N(Cc2ccccc2)C1=O [6-27] | ≥ 50% | –
CC1(C)C(=O)C(=C(Nc2ccc(F)cc2)Nc2ccc(F)cc2)C(=O)CC1c1ccc(Br)cn1 (centres unmarked) [1-44] | ≥ 50% | 100%
CCC1(c2ccc(C(F)(F)F)nc2)CN(C)C(=O)C(=C(NC)Nc2ccc(F)cc2)C1=O (centres unmarked) [compound No. 3-2] | ≥ 50% | –
O=C1CC(c2ccc(C(F)(F)F)nc2)OC(=O)C1=C(Nc1ccc(F)nc1)Nc1ccc(F)nc1 (centres unmarked) [2-3] | ≥ 50% | –
O=C1CC(c2ccc(C(F)(F)F)cc2)CC(=O)C1=C(Nc1ccc(F)cc1)Nc1cnccn1 (centres unmarked) [1-64] | ≥ 50% | –
CNC(Nc1ccc(F)nc1)=C1C(=O)CC(c2cc(OC(F)F)n(C)n2)NC1=O (centres unmarked) [3-20] | ≥ 50% | –
CSC(Nc1ccc(F)nc1)=C1C(=O)CCN(c2ccc(C(F)(F)F)cc2)C1=O [9-34] | ≥ 50% | –
O=C1CC(c2cnc(Cl)c(Br)c2)NC(=O)C1=C(Nc1ccc(F)cc1)Nc1ccc(F)nc1 (centres unmarked) [3-43] | ≥ 50% | –
CC(C)(C)ONC(Nc1ccc(F)cc1)=C1C(=O)CC(c2ccc(C(F)(F)F)cc2)CC1=O (centres unmarked) [1-38] | ≥ 50% | 100%
C=CCNC(Nc1ccc(F)cc1)=C1C(=O)CC(c2cnc(C)o2)CC1=O (centres unmarked) [1-115] | ≥ 50% | 100%
CCC1(c2ccc(C(F)(F)F)cc2)CN(C)C(=O)C(=C(Nc2ccc(F)cc2)Nc2ccc(F)nc2)C1=O (centres unmarked) [3-9] | ≥ 50% | –
CCC1(c2ccc(C(F)(F)F)nc2)CN(C)C(=O)C(=C(Nc2ccc(F)nc2)SC)C1=O (centres unmarked) [9-37] | ≥ 50% | –
CNC(Nc1ccc(F)cc1)=C1C(=O)CC(c2ccc(Br)cn2)CC1=O (centres unmarked) [1-10] | ≥ 50% | 100%
Cn1nc(-c2ccccc2)c(C2CC(=O)C(=C(Nc3ccc(F)cc3)Nc3ccc(F)nc3)C(=O)C2)c1Cl (centres unmarked) [1-79] | ≥ 50% | –
O=C1CC(c2ccc(Br)cn2)CC(=O)C1=C(Nc1ccc(F)cn1)Nc1ccc(F)cn1 (centres unmarked) [1-5] | ≥ 50% | –
O=C1CC(c2ccc(C(F)(F)F)cc2)CC(=O)C1=C(Nc1ccc(F)cn1)Nc1ccc(F)cn1 (centres unmarked) [1-1] | ≥ 50% | 100%

SMILES | inhibition at 100 µM (Dirofilaria immitis) | mortality at 500 µg/mL (Plutella xylostella)
CNC(Nc1ccc(F)cc1)=C1C(=O)CN(c2ccc(C#N)cn2)CC1=O [compound No. 4-1] | ≥ 50% | 100%
O=C1CC(c2ccc(C(F)(F)F)cc2)CC(=O)C1=C(NCc1ccc(F)cc1)Nc1ccc(F)cc1 (centres unmarked) [1-34] | ≥ 50% | –
O=C1CCC(CC(F)(F)F)C(=O)C1=C(Nc1ccc(F)cc1)Nc1ccc(F)nc1 (centres unmarked) [1-54] | ≥ 50% | –
CC1(C)C(=O)C(=C(Nc2ccnc(F)c2)Nc2ccnc(F)c2)C(=O)CC1c1ccc(Br)cn1 (centres unmarked) [1-47] | ≥ 50% | –
CNC(Nc1ccn(C)n1)=C1C(=O)CC(c2ccc(C(F)(F)F)cc2)CC1=O (centres unmarked) [1-117] | ≥ 50% | –
CCOC(=O)N1C(=O)C(=C(NC)Nc2ccc(F)c(F)c2)C(=O)CN1c1ccc(C#N)c(F)c1 [6-29] | ≥ 50% | –
CN(C)CCNC(NCCN(C)C)=C1C(=O)CC(c2ccc(C(F)(F)F)cc2)CC1=O (centres unmarked) [1-42] | ≥ 50% | –
O=C1CCC(CC(F)(F)F)C(=O)C1=C(Nc1ccc(F)nc1)Nc1ccc(F)nc1 (centres unmarked) [1-52] | ≥ 50% | –
CCC1(c2ccc(C(F)(F)F)cc2)CN(C)C(=O)C(=C(Nc2ccc(F)nc2)Nc2ccc(F)nc2)C1=O (centres unmarked) [3-10] | ≥ 50% | –
CCC1(c2ccc3ccccc3n2)CN(C)C(=O)C(=C(Nc2ccc(F)nc2)SC)C1=O (centres unmarked) [9-38] | ≥ 50% | –
CNC(Nc1ccc(F)cc1)=C1C(=O)CCCN(c2ccc(C(F)(F)F)cc2)C1=O [5-2] | ≥ 50% | –
CCOC(=O)N1C(=O)C(=C(NCc2cccc(F)c2)Nc2cccc(F)c2)C(=O)CN1c1ccc(C#N)c(Cl)c1 [6-31] | ≥ 50% | –
O=C1CC(c2ccc(C(F)(F)F)cc2)CC(=O)C1=C(Nc1ccc(F)nc1)Nc1cccnn1 (centres unmarked) [1-116] | ≥ 50% | 100%
O=C1CC(c2nc(-c3ccc(F)cc3)cs2)NC(=O)C1=C(Nc1ccc(F)nc1)Nc1ccc(F)nc1 (centres unmarked) [3-25] | ≥ 50% | 100%
O=C1CC(c2ccc(C(F)(F)F)cc2)CC(=O)C1=C(NCC(F)(F)F)NCC(F)(F)F (centres unmarked) [1-28] | ≥ 50% | 100%
O=C1CC(c2ccc(C(F)(F)F)cc2)CC(=O)C1=C(NCc1ccc(OC(F)(F)F)cc1)Nc1ccc(F)cc1 (centres unmarked) [1-14] | ≥ 50% | –
COc1ncccc1NC(Nc1cccnc1OC)=C1C(=O)CC(c2ccc(C(F)(F)F)cc2)CC1=O (centres unmarked) [1-118] | ≥ 50% | –
O=C1CC(c2ccc(C(F)(F)F)cc2)C(c2ccccn2)C(=O)C1=C(Nc1ccc(F)cc1)Nc1ccc(F)nc1 (centres unmarked) [1-73] | ≥ 50% | –
CNC(Nc1ccc(F)nc1)=C1C(=O)CC(c2ccc(C(F)(F)F)cc2)CC1=O (centres unmarked) [1-56] | ≥ 50% | –
CNC(Nc1ccc(F)cc1)=C1C(=O)CC(c2ccc(C(F)(F)F)cc2)N(C)C1=O (centres unmarked) [compound No. 3-1, 3-(((4-fluorophenyl)amino) (methylamino)methylene)-1-methyl-6-(4-(trifluoromethyl)phenyl)piperidine-2,4-dione] | ≥ 50% | –
O=C1CC(c2ccc(Br)cn2)CC(=O)C1=C(Nc1ccnc(F)c1)Nc1ccnc(F)c1 (centres unmarked) [1-7] | ≥ 50% | –
O=C1CC(c2ccc(C(F)(F)F)cc2)CC(=O)C1=C(Nc1ccc(F)cc1)NC1CCOc2ccccc21 (centres unmarked) [1-69] | ≥ 50% | –
CC1(C)C(=O)C(=C(Nc2ccc(F)cn2)Nc2ccc(F)cn2)C(=O)CC1c1ccc(Br)cn1 (centres unmarked) [1-45] | ≥ 50% | 100%

From EP4737442A1, “DIAMINOVINYLIDENE DERIVATIVE OR SALT THEREOF, PEST CONTROL AGENT CONTAINING SAID COMPOUND, AND METHODS FOR USING THESE” (ADEKA CORPORATION, priority 2023, dated 2025)
